Assays:
morningglory = assay: Test B pre-/postemergence herbicide test; type: in vivo, Ipomoea coccinea; settings: for Morningglory plant response rating: postemergence
In short: (§1)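 Response was scored visually 13 to 15 days after treatment against untreated greenhouse controls, 0 meaning no effect and 100 complete control. Formulations (solvent mixture plus surfactant) went onto soil after planting, onto foliage of 1- to 4-leaf plants, and onto 2-leaf plants in a flooded paddy set including rice and barnyardgrass.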

blackgrass = assay: Test B postemergence herbicide test; type: in vivo, Alopecurus myosuroides; settings: scale 0 (no effect) to 100 (complete control); for Blackgrass plant response rating: postemergence, visual rating
In short: (§2)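 Visual control ratings, 0–100 versus untreated controls, taken after 13 to 15 days in the greenhouse. Blackgrass received a postemergence spray at the 1- to 4-leaf stage (2–18 cm); ducksalad, umbrella sedge and barnyardgrass were flooded-paddy treated at 2 leaves.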

barnyardgrass [1] = assay: Test B pre-/postemergence herbicide test; type: in vivo, Echinochloa crus-galli
In short: as §1

barnyardgrass [2] = assay: Test B flooded paddy test; type: in vivo, Echinochloa crus-galli; settings: 1000 g ai/ha, scale 0 to 100 (0 no effect, 100 complete control)
In short: as §2

large crabgrass = assay: Test B pre-/postemergence herbicide test; type: in vivo, Digitaria sanguinalis
In short: (§3)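 Greenhouse pot assay with simultaneous preemergence (treated seed) and postemergence (2–18 cm seedlings) applications of surfactant-containing, non-phytotoxic solvent formulations. Response scored visually 13–15 days later on a 0–100 scale, 100 meaning complete control.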

corn = assay: Test B pre-/postemergence herbicide test; type: in vivo, Zea mays
In short: as §3

rice [3] = assay: Test B flooded paddy test; type: in vivo, Oryza sativa; settings: 1000 g ai/ha, scale 0 to 100 (0 no effect, 100 complete control)
In short: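 Greenhouse test; postemergence application to plants at 1–4 leaves (2–18 cm); paddy species at 2 leaves; evaluated visually vs controls at 13–15 days; scale 0–100 (100 = complete control).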

wild oat = assay: Test B postemergence herbicide test; type: in vivo, Avena fatua; settings: for Oat, Wild plant response rating: postemergence
In short: (§4)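 Visual ratings, 0 (no effect) to 100 (complete control), made versus controls after 13–15 d greenhouse. Paddy plants treated at 2-leaf stage; postemergence plants at 1- to 4-leaf stage, 2–18 cm tall.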

wheat = assay: Test B postemergence herbicide test; type: in vivo, Triticum aestivum; design: key to Wheat plant response rating: 0 = no effect, 100 = complete control; settings: for Wheat plant response rating: postemergence
In short: as §4

ducksalad = assay: Test B flooded paddy test; type: in vivo, Heteranthera limosa; settings: 1000 g ai/ha, scale 0 to 100 (0 no effect, 100 complete control)
In short: as §2

giant foxtail = assay: Test B pre-/postemergence herbicide test; type: in vivo, Setaria faberi
In short: as §3

velvetleaf = assay: Test B pre-/postemergence herbicide test; type: in vivo, Abutilon theophrasti; settings: for Velvetleaf plant response rating: postemergence
In short: as §3

cocklebur = assay: Test B pre-/postemergence herbicide test; type: in vivo, Xanthium strumarium; settings: for Cocklebur plant response rating: postemergence
In short: as §1

pigweed = assay: Test B pre-/postemergence herbicide test; type: in vivo, Amaranthus retroflexus; settings: for Pigweed plant response rating: postemergence
In short: as §3

rice [4] = assay: Test B pre-/postemergence herbicide test; type: in vivo, Oryza sativa; settings: preemergence
In short: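 Species tested were Echinochloa crus-galli, Ipomoea coccinea, Xanthium strumarium and Oryza sativa, treated both before emergence and at the 1- to 4-leaf stage; rice and barnyardgrass were also tested under flooding at 2 leaves. Greenhouse incubation lasted 13–15 days before visual 0–100 scoring.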

Surinam grass = assay: Test B pre-/postemergence herbicide test; type: in vivo, Urochloa decumbens; settings: for Surinam Grass plant response rating: postemergence
In short: as §3

lambsquarters = assay: Test B pre-/postemergence herbicide test; type: in vivo, Chenopodium album; settings: for Lambsquarters plant response rating: postemergence
In short: as §3

[5] = tested on: small flower umbrella sedge; assay: Test B flooded paddy test; type: in vivo, Cyperus difformis; settings: 1000 g ai/ha, scale 0 to 100 (0 no effect, 100 complete control)
In short: as §2

[6] = 125 g ai/ha, 0 = no effect, 100 = complete control, preemergence
[7] = 500 g ai/ha, visual rating, 0 = no effect, 100 = complete control, preemergence
[8] = 125 g ai/ha, visual rating, scale 0 (no effect) to 100 (complete control)
[9] = 500 g ai/ha, scale 0 to 100, 0 is no effect, 100 is complete control
[10] = postemergence, 125 g ai/ha, visual rating, scale 0 (no effect) to 100 (complete control)
[11] = postemergence, 500 g ai/ha, visual rating, scale 0 (no effect) to 100 (complete control)
[12] = postemergence, 500 g ai/ha, scale 0 to 100, 0 is no effect, 100 is complete control
[13] = 500 g ai/ha, visual rating, scale 0 (no effect) to 100 (complete control)
[14] = 125 g ai/ha, 0 = no effect, 100 = complete control
[15] = 500 g ai/ha, visual rating, 0 = no effect, 100 = complete control
[16] = Postemergence, 500 g ai/ha, visual rating after 13 to 15 days, scale 0 (no effect) to 100 (complete control)
[17] = preemergence, 125 g ai/ha, 0 to 100 scale, 0 is no effect, 100 is complete control
[18] = Preemergence, 500 g ai/ha, scale 0 to 100

CCCOC(=O)c1cc(NC(=O)c2cc(C(C)(C)C)nn2CC)c(F)cc1F [Compound 249]
Morningglory plant response rating (0 to 100 scale) (morningglory; [6]): 0
Plant response rating, Morningglory (morningglory; [7]): 10
Morningglory plant response rating (morningglory; [8]): 20
Morningglory plant response rating (morningglory; [9]): 30
Blackgrass plant response rating (blackgrass; 125 g ai/ha): 20
Blackgrass plant response rating (blackgrass; 500 g ai/ha): 30
Barnyardgrass plant response rating (0 to 100 scale) (barnyardgrass [1]; [6]): 0
Plant response rating, Barnyardgrass (barnyardgrass [1]; [7]): 0
Barnyardgrass plant response rating (barnyardgrass [1]; [10]): 10
Barnyardgrass plant response rating (barnyardgrass [1]; [11]): 20
Barnyardgrass plant response rating (barnyardgrass [2]): 0
Crabgrass, Large plant response rating (0 to 100 scale) (large crabgrass; [6]): 0
Plant response rating, Crabgrass, Large (large crabgrass; [7]): 0
Crabgrass, Large plant response rating (large crabgrass; [10]): 10
Crabgrass, Large plant response rating (large crabgrass; [12]): 30
Corn plant response rating (0 to 100 scale) (corn; [6]): 0
Plant response rating, Corn (corn; [7]): 0
Corn plant response rating (corn; [10]): 10
Corn plant response rating (corn; [12]): 20
Rice plant response rating (rice [3]): 0
Oat, Wild plant response rating (wild oat; [8]): 30
Oat, Wild plant response rating (wild oat; [9]): 40
Wheat plant response rating (wheat; [8]): 30
Wheat plant response rating (wheat; [9]): 30
Ducksalad plant response rating (ducksalad): 0
Foxtail, Giant plant response rating (0 to 100 scale) (giant foxtail; [6]): 0
Plant response rating, Foxtail, Giant (giant foxtail; [7]): 0
Foxtail, Giant plant response rating (giant foxtail; [10]): 20
Foxtail, Giant plant response rating (giant foxtail; [12]): 30
Velvetleaf plant response rating (0 to 100 scale) (velvetleaf; [6]): 0
Plant response rating, Velvetleaf (velvetleaf; [7]): 0
Velvetleaf plant response rating (velvetleaf; [8]): 10
Velvetleaf plant response rating (velvetleaf; [9]): 20
Cocklebur plant response rating (0 to 100 scale) (cocklebur; [6]): 0
Plant response rating, Cocklebur (cocklebur; [7]): 0
Cocklebur plant response rating (cocklebur; [8]): 30
Cocklebur plant response rating (cocklebur; [13]): 30
Pigweed plant response rating (0 to 100 scale) (pigweed; [6]): 0
Plant response rating, Pigweed (pigweed; [7]): 0
Pigweed plant response rating (pigweed; [8]): 20
Pigweed plant response rating (pigweed; [9]): 80
Rice plant response rating (0 to 100 scale) (rice [4]; [14]): 0
Plant response rating, Rice (rice [4]; [15]): 0
Surinam Grass plant response rating (0 to 100 scale) (Surinam grass; [6]): 0
Plant response rating, Surinam Grass (Surinam grass; [7]): 20
Surinam Grass plant response rating (Surinam grass; [8]): 10
Surinam Grass plant response rating (Surinam grass; [9]): 30
Lambsquarters plant response rating (0 to 100 scale) (lambsquarters; [6]): 0
Lambsquarters plant response rating (lambsquarters; [8]): 10
Lambsquarters plant response rating (lambsquarters; [9]): 20
Sedge, Umbrella plant response rating [5]: 30

CCN(C)C(=O)c1cc(NC(=O)c2cc(C(C)(C)C)nn2CC)c(F)cc1F [Compound 254]
Morningglory plant response rating (0 to 100 scale) (morningglory; [6]): 0
Plant response rating, Morningglory (morningglory; [7]): 10
Morningglory plant response rating (morningglory; [8]): 20
Morningglory plant response rating (morningglory; [9]): 30
Blackgrass plant response rating (blackgrass; 125 g ai/ha): 0
Blackgrass plant response rating (blackgrass; 500 g ai/ha): 10
Barnyardgrass plant response rating (0 to 100 scale) (barnyardgrass [1]; [6]): 0
Plant response rating, Barnyardgrass (barnyardgrass [1]; [7]): 40
Barnyardgrass plant response rating (barnyardgrass [1]; [10]): 0
Barnyardgrass plant response rating (barnyardgrass [1]; [11]): 10
Barnyardgrass plant response rating (barnyardgrass [2]): 30
Crabgrass, Large plant response rating (0 to 100 scale) (large crabgrass; [6]): 10
Plant response rating, Crabgrass, Large (large crabgrass; [7]): 100
Crabgrass, Large plant response rating (large crabgrass; [10]): 10
Crabgrass, Large plant response rating (large crabgrass; [12]): 10
Corn plant response rating (0 to 100 scale) (corn; [6]): 0
Plant response rating, Corn (corn; [7]): 0
Corn plant response rating (corn; [10]): 0
Corn plant response rating (corn; [12]): 10
Rice plant response rating (rice [3]): 80
Oat, Wild plant response rating (wild oat; [8]): 20
Oat, Wild plant response rating (wild oat; [9]): 20
Wheat plant response rating (wheat; [8]): 10
Wheat plant response rating (wheat; [9]): 20
Ducksalad plant response rating (ducksalad): 90
Foxtail, Giant plant response rating (0 to 100 scale) (giant foxtail; [6]): 0
Plant response rating, Foxtail, Giant (giant foxtail; [7]): 30
Foxtail, Giant plant response rating (giant foxtail; [10]): 0
Foxtail, Giant plant response rating (giant foxtail; [12]): 0
Velvetleaf plant response rating (0 to 100 scale) (velvetleaf; [6]): 0
Plant response rating, Velvetleaf (velvetleaf; [7]): 20
Velvetleaf plant response rating (velvetleaf; [8]): 10
Velvetleaf plant response rating (velvetleaf; [9]): 10
Cocklebur plant response rating (0 to 100 scale) (cocklebur; [6]): 0
Plant response rating, Cocklebur (cocklebur; [7]): 0
Cocklebur plant response rating (cocklebur; [8]): 20
Cocklebur plant response rating (cocklebur; [13]): 20
Pigweed plant response rating (0 to 100 scale) (pigweed; [6]): 0
Plant response rating, Pigweed (pigweed; [7]): 100
Pigweed plant response rating (pigweed; [8]): 10
Pigweed plant response rating (pigweed; [9]): 30
Rice plant response rating (0 to 100 scale) (rice [4]; [14]): 0
Plant response rating, Rice (rice [4]; [15]): 20
Surinam Grass plant response rating (0 to 100 scale) (Surinam grass; [6]): 0
Plant response rating, Surinam Grass (Surinam grass; [7]): 40
Surinam Grass plant response rating (Surinam grass; [8]): 10
Surinam Grass plant response rating (Surinam grass; [9]): 10
Plant response rating, Lambsquarters (lambsquarters; [7]): 100
Lambsquarters plant response rating (lambsquarters; [8]): 10
Lambsquarters plant response rating (lambsquarters; [9]): 20
Sedge, Umbrella plant response rating [5]: 60

CCN(CC)C(=O)c1cc(NC(=O)c2cc(C(C)(C)C)nn2CC)ccc1C [Compound 69]
Plant response rating, Morningglory (morningglory; [16]): 0
Morningglory plant response rating (morningglory; [8]): 0
Plant response rating, Morningglory (morningglory; [17]): 0
Plant response rating, Blackgrass (blackgrass; Postemergence, 500 g ai/ha, visual rating after 13 to 15 days): 30
Blackgrass plant response rating (blackgrass; 125 g ai/ha): 10
Plant response rating, Barnyardgrass (barnyardgrass [1]; [16]): 0
Barnyardgrass plant response rating (barnyardgrass [1]; [18]): 0
Barnyardgrass plant response rating (barnyardgrass [1]; [10]): 0
Plant response rating, Barnyardgrass (barnyardgrass [1]; [17]): 0
Barnyardgrass plant response rating (barnyardgrass [2]; visual rating, 13 to 15 days): 0
Plant response rating, Crabgrass, Large (large crabgrass; [16]): 0
Crabgrass, Large plant response rating (large crabgrass; [18]): 0
Crabgrass, Large plant response rating (large crabgrass; [10]): 0
Plant response rating, Crabgrass, Large (large crabgrass; [17]): 0
Plant response rating, Corn (corn; [16]): 0
Corn plant response rating (corn; [18]): 0
Corn plant response rating (corn; [10]): 0
Plant response rating, Corn (corn; [17]): 0
Rice plant response rating (rice [3]; visual rating, 13 to 15 days): 0
Plant response rating, Oat, Wild (wild oat; [16]): 20
Oat, Wild plant response rating (wild oat; [8]): 10
Plant response rating, Wheat (wheat; [16]): 0
Wheat plant response rating (wheat; [8]): 0
Ducksalad plant response rating (ducksalad; visual rating, 13 to 15 days): 0
Plant response rating, Foxtail, Giant (giant foxtail; [16]): 0
Foxtail, Giant plant response rating (giant foxtail; [18]): 0
Foxtail, Giant plant response rating (giant foxtail; [10]): 0
Plant response rating, Foxtail, Giant (giant foxtail; [17]): 0
Plant response rating, Velvetleaf (velvetleaf; [16]): 0
Velvetleaf plant response rating (velvetleaf; [8]): 0
Plant response rating, Velvetleaf (velvetleaf; [17]): 0
Plant response rating, Cocklebur (cocklebur; [16]): 0
Cocklebur plant response rating (cocklebur; [8]): 0
Plant response rating, Cocklebur (cocklebur; [17]): 0
Plant response rating, Pigweed (pigweed; [16]): 20
Pigweed plant response rating (pigweed; [8]): 10
Plant response rating, Pigweed (pigweed; [17]): 0
Plant response rating, Rice (rice [4]; 125 g ai/ha, 0 to 100 scale, 0 is no effect, 100 is complete control): 0
Plant response rating, Surinam Grass (Surinam grass; [16]): 0
Surinam Grass plant response rating (Surinam grass; [8]): 0
Plant response rating, Surinam Grass (Surinam grass; [17]): 0
Plant response rating, Lambsquarters (lambsquarters; [16]): 10
Lambsquarters plant response rating (lambsquarters; [8]): 0
Plant response rating, Lambsquarters (lambsquarters; [17]): 0
Sedge, Umbrella plant response rating ([5]; visual rating, 13 to 15 days): 0

From patent US20060069132A1, “Azolecarboxamide herbicides” (priority 2004, published 2006)
